The subject of one data set is rat. As to the kind of experiment: Oral acute toxicity in the rat. The class given is in vivo. From the text: (§1) Chim.Farm.119, p.181, 1980.
(§2) Oral acute toxicity in the rat

For data set [1], the system named is staphylococcus aureus. Also on record: unit not given beside the values. To be noted: intramuscular. From the text: In Table 4, the activity data relating to the mucus production in the rabbit is reported, according to the method by Scuri et al., published in Boll. Chim.Farm.119, p.181, 1980.
Data set [2] relates to Staph. epiderm. clin. As to the kind of experiment: Antimicrobic activity, in vitro (CIM), first clinical isolate. The class given is cell-based, Staph. epiderm. (isolated clinically).
Text: as §1
(§3) Antimicrobic activity, in vitro.
(§4) CIM^(1) values (mcg/ml)
(§5) ^(1) CIM = Mic = Minimal inhibitory concentration
(§6) ^(2) Clin. = Isolated clinically.

Data set [3] deals with staphylococcus aureus. Further details: unit not given beside the values. To be noted: oral, 1 treatment.
Another data set has as its system Staph. aureus 1414. The data set is described as follows: Antimicrobic activity, in vitro (CIM). The data set is classed as cell-based, Staph. aureus 1414 (ATCC). The settings on record: Staph. aureus 1414, in vitro.
Text: as §1, §3, §4, §5
(§7) ^(3) The 4digit strains are ATCC's

In a further data set the test system is Strept. faecalis 8043. As to the kind of experiment: Antimicrobic activity, in vitro (CIM). The data set is classed as cell-based, Strept. faecalis 8043 (ATCC). The settings on record: Strept. faecalis 8043, in vitro.
Text: as §1, §3, §4, §5, §7

In a further data set the test system is Staph. aureus 6538. The data set is described as follows: Antimicrobic activity, in vitro (CIM). The class given is cell-based, Staph. aureus 6538 (ATCC). To be noted: Staph. aureus 6538, in vitro.
Text: as §1, §3, §4, §5, §7

The next data set concerns Serr. marcescens cl. The data set is described as follows: Antimicrobic activity, in vitro (CIM). The class given is cell-based, Serr. marcescens (isolated clinically).
Text: as §1, §3, §4, §5, §6

The next data set has as its system rabbit mucoproduction. As to the kind of experiment: Activity on the rabbit mucoproduction (method of Scuri et al.). The data set is classed as in vivo.
Text: as §1
Activity on the rabbit mucoproduction.

The next data set relates to Micrococcus luteus 9341. As to the kind of experiment: Antimicrobic activity, in vitro (CIM). The data set is classed as cell-based, Micrococcus luteus 9341 (ATCC). To be noted: Micrococcus luteus 9341, in vitro.
Text: as §1, §3, §4, §5, §7

The test system of data set [4] is Staph. epiderm. clin. As to the kind of experiment: Antimicrobic activity, in vitro (CIM), second clinical isolate. The data set is classed as cell-based, Staph. epiderm. (isolated clinically).
Text: as §1, §3, §4, §5, §6

Another data set relates to Candida albicans. As to the kind of experiment: Antimicrobic activity, in vitro (CIM). The class given is cell-based.
Text: as §1, §3, §4, §5

The test system of the next data set is Pseudomonas aeruginosa. As to the kind of experiment: Antimicrobic activity, in vitro (CIM). The data set is classed as cell-based.
Text: as §1, §3, §4, §5

The subject of the next data set is Proteus vulgaris. The data set is described as follows: Antimicrobic activity, in vitro (CIM). The data set is classed as cell-based.
Text: as §1, §3, §4, §5

The test system of another data set is Escherichia coli 418. The data set is described as follows: Antimicrobic activity, in vitro (CIM). The data set is classed as cell-based. The settings on record: Escherichia coli 418, in vitro.
Text: as §1, §3, §4, §5

Data set [5] is described as follows: Oral acute toxicity in the rat. The data set is classed as in vivo. The settings on record: in vivo, rat, read-out: DL50 (the source's name).
Text: as §1, §2

[6] abbreviates: read-out: CIM (Mic, minimal inhibitory concentration).
Where [7] appears, read: Staphylococcus aureus, read-out: CIM (Mic, minimal inhibitory concentration).

In brackets after ≈: the same amount, converted by molar mass. Several values for one entry are separate records, joined by “and”; a condition that tells them apart may be missing. Identical values can stand only once. Like-named read-outs stand apart in the source and are kept apart here. Where only a bound is given, the exact number is not on record here.

Turning to `CC[C@H]1OC(=O)[C@H](C)[C@@H](O[C@H]2C[C@@](C)(OC)[C@@H](O)[C@H](C)O2)[C@H](C)[C@@H](O[C@@H]2O[C@H](C)C[C@H](N(C)C)[C@H]2O)[C@](C)(O)C[C@@H](C)C(=O)[C@H](C)[C@@H](O)[C@]1(C)O.O=C(O)c1ccccc1C(=O)N1CCSC1` [CO/1316, erythromycin salt of o-carbonyl(1-thiazolidinyl)-benzoic acid], the “acute oral toxicity compared with erythromycin base” value in the data set on rat is given as “substantially coincides with that of the erythromycin base”. The same molecule yielded a DL50 in the data set on rat (rat) greater than 5.0 g/kg. Besides, the DI50 in the data set on staphylococcus aureus [1] (medium infection, 5 treatments) is 76 and 152; in the data set on staphylococcus aureus [1] (serious infection, 1 treatment), 210 and 390; in the data set with staphylococcus aureus [3] (medium infection), 350 and 510; in the data set with staphylococcus aureus [3] (serious infection) it was 560 and 720. The “Solubility in 95% ethanol” value (95% ethanol) is on record as 32%. The same molecule registered a Solubility in acetone (acetone) of 50%. The molecule also yielded a Solubility in chloroform (chloroform) of 50%. For the setting “dioxane”, this molecule displayed a Solubility in dioxane of 15%. This molecule came in with a Solubility in ethanol (ethanol) of 50%. Further, the “Solubility in ethyl ether” value (ethyl ether) turned out to be 0.1%. Besides, for the setting “methanol”, the Solubility in methanol was 57%. For the same molecule, the Solubility in n-hexane result (n-hexane) is given as “pratically insoluble”. Besides, for the setting “toluene”, the Solubility in toluene is 0.3%. Under “water, ambient temperature”, this molecule returned a Solubility in water of 3 % W/V. The “CIM (Mic, minimal inhibitory concentration)” value was found to be 10 µg/mL in the data set on Staph. epiderm. clin. [2]; 10 µg/mL in the data set with Staph. aureus 1414; 0.6 µg/mL in the data set on Strept. faecalis 8043; 10 µg/mL with Staph. aureus 6538; 100 µg/mL in the data set with Serr. marcescens cl.; 0.1 µg/mL with Micrococcus luteus 9341. The “CIM (Mic, minimal inhibitory concentration)” value was 0.1 µg/mL with Staph. epiderm. clin. [4]; 100 µg/mL in the data set on Candida albicans; “+100 mcg/ml” in the data set with Pseudomonas aeruginosa (in vitro); 5 µg/mL in the data set with Proteus vulgaris; 50 µg/mL in the data set on Escherichia coli 418. In addition, the “Anim. with increase / Treated anim.” value in the data set on rabbit mucoproduction (40 mg/kg ev) was 9/14. Besides, the “Anim. with increase / Treated anim., %” value with rabbit mucoproduction (40 mg/kg ev) is 64/2. For the same molecule, the “Mucoproduction: Var. %” value in the data set on rabbit mucoproduction (40 mg/kg ev) is recorded as “+45%”.
On to `CC[C@H]1OC(=O)[C@H](C)[C@@H](O[C@H]2C[C@@](C)(OC)[C@@H](O)[C@H](C)O2)[C@H](C)[C@@H](O[C@@H]2O[C@H](C)C[C@H](N(C)C)[C@H]2O)[C@](C)(O)C[C@@H](C)C(=O)[C@H](C)[C@@H](O)[C@]1(C)O` [Erythromycin], for which the LD50 in [5] was greater than 5000 mg/kg. For the same molecule, the MIC with Staph. epiderm. clin. [2] (setting [6]) amounted to 10 µg/mL (≈ 13.6 µM); in the data set on Staph. aureus 1414 (setting [7]), 10 µg/mL (≈ 13.6 µM); with Strept. faecalis 8043 (Enterococcus faecalis, read-out: CIM (Mic, minimal inhibitory concentration)) it was 0.3 µg/mL (≈ 0.409 µM); in the data set on Staph. aureus 6538 (setting [7]), 10 µg/mL (≈ 13.6 µM); in the data set with Serr. marcescens cl. (Serratia marcescens, read-out: CIM (Mic, minimal inhibitory concentration)), 50 µg/mL (≈ 68.1 µM); with Micrococcus luteus 9341 (setting [6]), 0.1 µg/mL (≈ 0.136 µM). The MIC was 0.1 µg/mL (≈ 0.136 µM) in the data set on Staph. epiderm. clin. [4] (setting [6]); 100 µg/mL (≈ 136 µM) in the data set with Candida albicans (setting [6]); 100 µg/mL (≈ 136 µM) in the data set with Pseudomonas aeruginosa (setting [6]); 2.5 µg/mL (≈ 3.41 µM) in the data set on Proteus vulgaris (setting [6]); 25 µg/mL (≈ 34.1 µM) in the data set with Escherichia coli 418 (setting [6]). In addition, the “Anim. with increase / Treated anim.” value with rabbit mucoproduction (30 mg/kg ev) is 0/10. For the same molecule, in the data set on rabbit mucoproduction (30 mg/kg ev), the “Mucoproduction: Var. %” value is listed as “Inactive”.

The values above are taken from patent US4575496A, “Erythromycin salt of the o-carbonyl(1-thiazolidinyl)-benzoic acid and pharmaceutical compositions containing it” (Camillo Corvi S.p.A., priority 1983, dated 1986).
